Literature values, collected in patent US20100210573A1, “COMPOUND AND COMPOSITIONS FOR TREATMENT OF DISEASE” (Citrox Limited, priority 2008, published 2010).

Experiments:
[1] = tested on: Leishmania donovani promastigotes and amastigotes; settings: in vitro; Mittra et al., Molecular Medicine 6, 2000
[2] = tested on: Trypanosoma brucei gambiense; settings: cell cultures; Antimicrobial Agents and Chemother. 48, 2004

SMILES	growth of Leishmania donovani promastigotes and amastigotes [1]	apoptosis of Trypanosoma brucei gambiense [2]
O=c1c(O)c(-c2ccc(O)c(O)c2)oc2cc(O)cc(O)c12 [Quercetin]	inhibit the growth	induce apoptosis
O=c1cc(-c2ccc(O)c(O)c2)oc2cc(O)cc(O)c12 [Luteolin]	inhibit the growth	
